Assay results as given in ChEMBL document CHEMBL1201862, “PubChem BioAssay data set” (2004).
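The compound was tested at five concentrations on cells cultured in 96-well plates, with a 48-hour exposure period. Abbreviation: GI50, concentration required for 50% inhibition of growth.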 Calls of active or inactive are those of the source. No stated cut-off is given here; in the data, active = GI50 up to about 1.1 µM and inactive = higher.

Key:
Assay in all cases: DTP human tumour cell line panel, 48 h
NCI-H522 = system: NCI-H522
SNB-19 = system: SNB-19
OVCAR-5 = system: OVCAR-5
RXF 393 = system: RXF 393
SF-268 = system: SF-268
A549 = system: A549
T47D = system: T47D
HL-60 = system: HL-60
OVCAR-3 = system: OVCAR-3
M14 = system: M14
786-0 = system: 786-0
DU-145 = system: DU-145
NCI-H460 = system: NCI-H460
OVCAR-8 = system: OVCAR-8
Hs-578T = system: Hs-578T
SN12C = system: SN12C
MOLT-4 = system: MOLT-4
HCT-15 = system: HCT-15
HCT-116 = system: HCT-116
IGROV-1 = system: IGROV-1
RPMI-8226 = system: RPMI-8226
K562 = system: K562
HT-29 = system: HT-29
CAKI-1 = system: CAKI-1
OVCAR-4 = system: OVCAR-4
CCRF-CEM = system: CCRF-CEM
ACHN = system: ACHN
NCI-H23 = system: NCI-H23
A498 = system: A498
SF-295 = system: SF-295
PC-3 = system: PC-3
SF-539 = system: SF-539
HCC 2998 = system: HCC 2998
SNB-75 = system: SNB-75
MDA-MB-435 = system: MDA-MB-435
COLO 205 = system: COLO 205
LOX IMVI = system: LOX IMVI
MDA-MB-231 = system: MDA-MB-231
SK-MEL-28 = system: SK-MEL-28
SR = system: SR
UACC-62 = system: UACC-62
NCI-H226 = system: NCI-H226
SK-MEL-2 = system: SK-MEL-2
SW-620 = system: SW-620
HOP-62 = system: HOP-62
HOP-92 = system: HOP-92
BT-549 = system: BT-549
UO-31 = system: UO-31
MCF7 = system: MCF7
Malme-3M = system: Malme-3M
U-251 = system: U-251
MDA-N = system: MDA-N
SK-OV-3 = system: SK-OV-3
KM12 = system: KM12
SK-MEL-5 = system: SK-MEL-5
EKVX = system: EKVX
TK-10 = system: TK-10
UACC-257 = system: UACC-257
NCI/ADR-RES = system: NCI/ADR-RES

COc1cc(-c2[o+]c3cc(O)cc(OC4OC(CO)C(O)C(O)C4O)c3cc2OC2OC(CO)C(O)C(O)C2O)cc(OC)c1O (configuration not stated)
GI50 (NCI-H522): > 100 µM (inactive) | GI50 (SNB-19): > 100 µM (inactive) | GI50 (OVCAR-5): > 100 µM (inactive) | GI50 (RXF 393): > 100 µM (inactive) | GI50 (SF-268): > 100 µM (inactive) | GI50 (A549): > 100 µM (inactive) | GI50 (T47D): > 100 µM (inactive) | GI50 (HL-60): 21.1 µM (inactive) | GI50 (OVCAR-3): > 100 µM (inactive) | GI50 (M14): > 100 µM (inactive) | GI50 (786-0): > 100 µM (inactive) | GI50 (DU-145): > 100 µM (inactive) | GI50 (NCI-H460): > 100 µM (inactive) | GI50 (OVCAR-8): > 100 µM (inactive) | GI50 (Hs-578T): > 100 µM (inactive) | GI50 (SN12C): > 100 µM (inactive) | GI50 (MOLT-4): > 100 µM (inactive) | GI50 (HCT-15): > 100 µM | GI50 (HCT-116): > 100 µM (inactive) | GI50 (IGROV-1): > 100 µM (inactive) | GI50 (RPMI-8226): > 100 µM (inactive) | GI50 (K562): > 100 µM (inactive) | GI50 (HT-29): > 100 µM (inactive) | GI50 (CAKI-1): > 100 µM (inactive) | GI50 (OVCAR-4): > 100 µM (inactive) | GI50 (CCRF-CEM): 70.1 µM (inactive) | GI50 (ACHN): > 100 µM (inactive) | GI50 (NCI-H23): > 100 µM (inactive) | GI50 (A498): > 100 µM (inactive) | GI50 (SF-295): > 100 µM (inactive) | GI50 (PC-3): > 100 µM (inactive) | GI50 (SF-539): > 100 µM (inactive) | GI50 (HCC 2998): > 100 µM (inactive) | GI50 (SNB-75): > 100 µM (inactive) | GI50 (MDA-MB-435): > 100 µM (inactive) | GI50 (COLO 205): > 100 µM (inactive) | GI50 (LOX IMVI): > 100 µM (inactive) | GI50 (MDA-MB-231): > 100 µM (inactive) | GI50 (SK-MEL-28): > 100 µM (inactive) | GI50 (SR): > 100 µM (inactive) | GI50 (UACC-62): > 100 µM (inactive) | GI50 (NCI-H226): > 100 µM (inactive) | GI50 (SK-MEL-2): > 100 µM (inactive) | GI50 (SW-620): > 100 µM (inactive) | GI50 (HOP-62): > 100 µM (inactive) | GI50 (HOP-92): > 100 µM (inactive) | GI50 (BT-549): > 100 µM (inactive) | GI50 (UO-31): > 100 µM (inactive) | GI50 (MCF7): > 100 µM (inactive) | GI50 (Malme-3M): > 100 µM (inactive) | GI50 (U-251): > 100 µM (inactive) | GI50 (MDA-N): > 100 µM (inactive) | GI50 (SK-OV-3): > 100 µM (inactive) | GI50 (KM12): > 100 µM (inactive) | GI50 (SK-MEL-5): > 100 µM (inactive) | GI50 (EKVX): > 100 µM (inactive) | GI50 (TK-10): > 100 µM (inactive) | GI50 (UACC-257): > 100 µM (inactive)

O=c1/c(=C/c2ccccn2)sc2nc3cc4c(cc3n12)OCCO4
GI50 (NCI-H522): > 100 µM (inactive) | GI50 (SNB-19): > 100 µM (inactive) | GI50 (OVCAR-5): > 100 µM (inactive) | GI50 (RXF 393): > 100 µM (inactive) | GI50 (SF-268): > 100 µM (inactive) | GI50 (A549): > 100 µM (inactive) | GI50 (T47D): > 100 µM (inactive) | GI50 (OVCAR-3): > 100 µM (inactive) | GI50 (M14): > 100 µM (inactive) | GI50 (786-0): > 100 µM (inactive) | GI50 (DU-145): > 100 µM (inactive) | GI50 (NCI-H460): > 100 µM (inactive) | GI50 (OVCAR-8): > 100 µM (inactive) | GI50 (Hs-578T): > 100 µM (inactive) | GI50 (SN12C): > 100 µM (inactive) | GI50 (MOLT-4): > 100 µM (inactive) | GI50 (HCT-15): > 100 µM | GI50 (HCT-116): > 100 µM (inactive) | GI50 (IGROV-1): > 100 µM (inactive) | GI50 (RPMI-8226): > 100 µM (inactive) | GI50 (K562): > 100 µM (inactive) | GI50 (HT-29): > 100 µM (inactive) | GI50 (CAKI-1): > 100 µM (inactive) | GI50 (OVCAR-4): > 100 µM (inactive) | GI50 (CCRF-CEM): > 100 µM (inactive) | GI50 (ACHN): > 100 µM (inactive) | GI50 (NCI-H23): > 100 µM (inactive) | GI50 (A498): > 100 µM (inactive) | GI50 (SF-295): > 100 µM (inactive) | GI50 (PC-3): > 100 µM (inactive) | GI50 (HCC 2998): > 100 µM (inactive) | GI50 (NCI/ADR-RES): > 100 µM (inactive) | GI50 (SNB-75): 91.8 µM (inactive) | GI50 (MDA-MB-435): > 100 µM (inactive) | GI50 (COLO 205): > 100 µM (inactive) | GI50 (LOX IMVI): > 100 µM (inactive) | GI50 (MDA-MB-231): > 100 µM (inactive) | GI50 (SK-MEL-28): > 100 µM (inactive) | GI50 (UACC-62): > 100 µM (inactive) | GI50 (NCI-H226): > 100 µM (inactive) | GI50 (SK-MEL-2): > 100 µM (inactive) | GI50 (SW-620): > 100 µM (inactive) | GI50 (HOP-62): > 100 µM (inactive) | GI50 (HOP-92): > 100 µM (inactive) | GI50 (BT-549): > 100 µM (inactive) | GI50 (UO-31): > 100 µM (inactive) | GI50 (Malme-3M): > 100 µM (inactive) | GI50 (U-251): > 100 µM (inactive) | GI50 (MDA-N): > 100 µM (inactive) | GI50 (SK-OV-3): > 100 µM (inactive) | GI50 (KM12): > 100 µM (inactive) | GI50 (SK-MEL-5): > 100 µM (inactive) | GI50 (TK-10): > 100 µM (inactive) | GI50 (UACC-257): > 100 µM (inactive)
